In paper doi:10.1101/2020.07.20.212142v1 (bioRxiv, 2020):

How the values were obtained:
NIH 3T3 cells = assay: NIH 3T3 peptide permeation by live-cell confocal microscopy; type: cell-based, mouse; conditions: live NIH 3T3 cells; 5 µM TAMRA-labeled peptide, Opti-mem + 2% FBS, 3 hours, 37°C
[1] = system: dechorionated Drosophila melanogaster hosts; type: in vivo; conditions: dechorionated-only hosts; 20 µM peptide overnight, room temperature

| Substance | permeation by confocal fluorescence microscopy (NIH 3T3 cells) | partial loss of viability observed (in words) [1] |
| --- | --- | --- |
| TAMRA-GEGEGEG | no permeation was detected | – |
| TAMRA-MRKRHASRREK | spare punctuate fluorescence | – |
| TAMRA-RRRRRRRRR | spare punctuate fluorescence | sole exception |
| cyclo[Glut-MRKRHASRRE-K*]-K(5-TAMRA) (sidechain bridge or staple) | substantially greater permeation | – |
